T/C data for 22 molecules are collected here from PubChem BioAssay AID218 (DTP/NCI, 2004).

The structures appear in SMILES notation. “And” between values parts separate entries of the source, which are not always exact repeats. Identical values can stand only once.

This experiment concerns C57BL/6 mice, Adenocarcinoma 755 sc, tumor weight T/C. Nature of the experiment: NCI In Vivo Anticancer Drug Screen. Data for tumor model Adenocarcinoma 755 (subcutaneous) in C57BL/6 mice. To be noted: endpoint: mean tumor weight, higher = larger tumour. The method, then:
The antitumor activity of compounds was measured in mice bearing transplantable tumors. Survival or tumor size were measured and the results are expressed as the measurement made in the treated group (T) divided by the measurement made in the vehicle treated control group (C). The tumor model used in this assay is Adenocarcinoma 755 (subcutaneous) in C57BL/6 mice

Where [1] appears, read: dose: 15.0 mg/kg/injection, schedule: Q01DX011 (ip), vehicle: saline.
Where [2] appears, read: dose: 0.5 mg/kg/injection, schedule: Q01DX011 (ip), vehicle: carboxymethylcellulose (CMC).
The mark [3] stands for this setting: dose: 1.0 mg/kg/injection, schedule: Q01DX011 (ip), vehicle: carboxymethylcellulose (CMC).
[4] abbreviates: dose: 2.0 mg/kg/injection, schedule: Q01DX011 (ip), vehicle: carboxymethylcellulose (CMC).
The mark [5] stands for this setting: dose: 75.0 mg/kg/injection, schedule: Q02DX006 (ip), vehicle: other.
[6] abbreviates: dose: 100.0 mg/kg/injection, schedule: Q02DX006 (ip), vehicle: other.
The mark [7] stands for this setting: dose: 1.0 mg/kg/injection, schedule: Q01DX011 (ip), vehicle: saline.
Where [8] appears, read: dose: 4.0 mg/kg/injection, schedule: Q01DX011 (ip), vehicle: saline.
[9] abbreviates: dose: 8.0 mg/kg/injection, schedule: Q01DX011 (ip), vehicle: saline.
Where [10] appears, read: dose: 40.0 mg/kg/injection, schedule: Q01DX011 (ip), vehicle: saline.
Where [11] appears, read: dose: 50.0 mg/kg/injection, schedule: Q01DX011 (ip), vehicle: saline.
Where [12] appears, read: dose: 100.0 mg/kg/injection, schedule: Q01DX011 (ip), vehicle: saline.
The mark [13] stands for this setting: dose: 2.0 mg/kg/injection, schedule: Q01DX011 (ip), vehicle: saline.
Setting [14] is: dose: 25.0 mg/kg/injection, schedule: Q01DX011 (ip), vehicle: saline.

By T/C is commonly meant the ratio of treated to control. Take `[N-]=[N+]=CC(=O)CCC(N)C(=O)O` (configuration not stated): the T/C was 110 % of control (dose: 0.04 mg/kg/injection, schedule: Q01DX011 (ip), vehicle: saline); 22 % of control (dose: 0.05 mg/kg/injection, schedule: Q01DX011 (ip), vehicle: saline); 46 % of control (dose: 0.08 mg/kg/injection, schedule: Q01DX011 (ip), vehicle: saline); 39 % of control (dose: 25.0 micrograms/kg/injection, schedule: Q01DX011 (ip), vehicle: saline); 45 % of control (dose: 50.0 micrograms/kg/injection, schedule: Q01DX011 (ip), vehicle: saline).
For `CCNc1ncnc2[nH]ncc12`, the T/C was 13 % of control under setting [1] and 4 % of control (dose: 20.0 mg/kg/injection, schedule: Q01DX011 (ip), vehicle: saline).
On to `CS(=O)(=O)OCCCCCCCCCOS(C)(=O)=O`, for which the T/C was 64 % of control (dose: 0.25 mg/kg/injection, schedule: Q01DX011 (ip), vehicle: carboxymethylcellulose (CMC)); 93 % of control under setting [2]; 162 % of control under setting [3]; 95 % of control under setting [4]; 84 % of control (dose: 4.0 mg/kg/injection, schedule: Q01DX011 (ip), vehicle: carboxymethylcellulose (CMC)).
On to `CC(C)CNC(=S)N/N=C/c1ccccc1`, for which the T/C is 70 % of control under setting [5] and 94 % of control under setting [6].
As to `O=C(O)CCCc1ccc(N(CCCl)CCCl)cc1`, the T/C is 73 % of control under setting [7]; 80 % of control under setting [8]; 51 % of control under setting [9]; 98 % of control (dose: 16.0 mg/kg/injection, schedule: Q01DX011 (ip), vehicle: saline).
As for `CSc1ncnc2c1ncn2C1OC(CO)C(O)C1O` (configuration not stated), the T/C reads like this: (dose: 5.0 mg/kg/injection, schedule: Q01DX011 (ip), vehicle: saline) 78 % of control; (dose: 10.0 mg/kg/injection, schedule: Q01DX011 (ip), vehicle: saline) 50 % of control; under setting [1], 67 % of control.
In the case of `CCN(CC)c1ncnc2[nH]ncc12`, the T/C under setting [10] was 25 % of control and the T/C under setting [11] is 23 % of control.
Consider `N=C(N)CCNC(=O)C1CCC(N)=N1` (configuration not stated), for which the T/C (dose: 4.0 mg/kg/injection, schedule: Q02DX006 (ip), vehicle: saline) is 59 % of control; the T/C (dose: 6.0 mg/kg/injection, schedule: Q02DX006 (ip), vehicle: saline) was 29 % of control and 53 % of control; the T/C (dose: 10.0 mg/kg/injection, schedule: Q02DX006 (ip), vehicle: saline) is 44 % of control.
As for `CCSCCC(N)C(=O)O` (configuration not stated), the T/C was 113 % of control under setting [11]; 67 % of control under setting [5]; 67 % of control and 78 % of control under setting [12]; 65 % of control under setting [6]; 72 % of control (dose: 150.0 mg/kg/injection, schedule: Q01DX011 (ip), vehicle: saline).
For `CCCCn1cnc2c(SSc3ncnc4c3ncn4CCCC)ncnc21`, the T/C (dose: 3.75 mg/kg/injection, schedule: Q01DX011 (ip), vehicle: saline) was 26 % of control; the T/C (dose: 7.5 mg/kg/injection, schedule: Q01DX011 (ip), vehicle: saline) is 7 % of control; the T/C under setting [1] is 7 % of control; the T/C (dose: 30.0 mg/kg/injection, schedule: Q01DX011 (ip), vehicle: saline) is 6 % of control.
As to `S=c1nc[nH]c2n[nH]nc12`, the T/C (dose: 30.0 mg/kg/injection, schedule: Q02DX006 (ip), vehicle: other) was 70 % of control and the T/C under setting [5] is 14 % of control.
`C=CC(CN1CC1)OC(C)=O` (configuration not stated): the T/C is, setting by setting: (dose: 1.0 mg/kg/injection, schedule: Q01DX011 (oral), vehicle: saline) 63 % of control; (dose: 1.0 mg/kg/injection, schedule: Q#A X022 (ip), vehicle: saline) 92 % of control; under setting [13], 66 % of control; (dose: 2.0 mg/kg/injection, schedule: Q01DX011 (oral), vehicle: saline) 49 % of control; (dose: 2.0 mg/kg/injection, schedule: Q#A X022 (ip), vehicle: saline) 43 % of control; (dose: 3.25 mg/kg/injection, schedule: Q01DX011 (oral), vehicle: saline) 38 % of control. For the same molecule, the T/C reads like this: under setting [8], 38 % of control; (dose: 4.0 mg/kg/injection, schedule: Q01DX011 (oral), vehicle: saline) 26 % of control; (dose: 4.0 mg/kg/injection, schedule: Q01DX011 (sc), vehicle: saline) 14 % of control; (dose: 6.0 mg/kg/injection, schedule: Q03DX004 (ip), vehicle: saline) 88 % of control; (dose: 7.5 mg/kg/injection, schedule: Q01DX011 (oral), vehicle: saline) 15 % of control; under setting [9], 17 % of control. Further, the T/C by setting is: (dose: 8.0 mg/kg/injection, schedule: Q01DX011 (oral), vehicle: saline) 21 % of control; (dose: 8.0 mg/kg/injection, schedule: Q01DX011 (sc), vehicle: saline) 8 % of control; (dose: 12.0 mg/kg/injection, schedule: Q03DX004 (ip), vehicle: saline) 59 % of control; (dose: 16.0 mg/kg/injection, schedule: Q01DX011 (oral), vehicle: saline) 5 % of control; (dose: 24.0 mg/kg/injection, schedule: Q03DX004 (ip), vehicle: saline) 11 % of control.
With `Clc1ncnc2nc[nH]c12`, the T/C (dose: 37.5 mg/kg/injection, schedule: Q01DX011 (ip), vehicle: saline) was 1 % of control.
Regarding `c1ccc2nc(-c3cc4ccccc4s3)ccc2c1`, the T/C (dose: 300.0 mg/kg/injection, schedule: Q01DX011 (ip), vehicle: saline) was 11 % of control.
In the case of `O=c1cn[nH]c(=O)[nH]1`, the T/C runs as follows: (dose: 100.0 mg/kg/injection, schedule: Q01DX011 (ip), vehicle: carboxymethylcellulose (CMC)) 159 % of control; (dose: 200.0 mg/kg/injection, schedule: Q01DX011 (ip), vehicle: carboxymethylcellulose (CMC)) 110 % of control.
For the molecule `CCOC(=O)n1cnc2ncnc(N)c21`, the T/C runs as follows: (dose: 25.0 mg/kg/injection, schedule: Q01DX011 (ip), vehicle: carboxymethylcellulose (CMC)) 56 % of control; (dose: 75.0 mg/kg/injection, schedule: Q01DX011 (ip), vehicle: carboxymethylcellulose (CMC)) 104 % of control.
On to `CNC=O`, for which the T/C under setting [14] is 92 % of control; the T/C under setting [11] is 112 % of control; the T/C under setting [12] is 64 % of control and 82 % of control; the T/C (dose: 125.0 mg/kg/injection, schedule: Q01DX011 (ip), vehicle: saline) was 98 % of control; the T/C (dose: 175.0 mg/kg/injection, schedule: Q02DX006 (ip), vehicle: water) is 40 % of control; the T/C (dose: 200.0 mg/kg/injection, schedule: Q01DX011 (ip), vehicle: saline) is 9 % of control and 30 % of control. Moreover, the T/C (dose: 225.0 mg/kg/injection, schedule: Q02DX006 (ip), vehicle: water) was 56 % of control.
With `CN(Cc1cnc2nc(N)nc(N)c2n1)c1ccc(C(=O)N[C@@H](CCC(=O)O)C(=O)O)cc1`, the T/C is 74 % of control (dose: 0.75 mg/kg/injection, schedule: Q01DX011 (ip), vehicle: saline); 105 % of control under setting [7]; 45 % of control (dose: 1.5 mg/kg/injection, schedule: Q01DX011 (ip), vehicle: saline); 87 % of control under setting [13].
For the molecule `NC(=S)N/N=C/c1cccc([N+](=O)[O-])c1`, the T/C was 36 % of control (dose: 75.0 mg/kg/injection, schedule: Q02DX006 (ip), vehicle: saline) and 47 % of control (dose: 100.0 mg/kg/injection, schedule: Q02DX006 (ip), vehicle: saline).
Consider `O=P1(N(CCF)CCCl)NCCCO1` (configuration not stated), for which the T/C runs as follows: (dose: 6.25 mg/kg/injection, schedule: Q01DX011 (ip), vehicle: saline) 76 % of control; (dose: 12.5 mg/kg/injection, schedule: Q01DX011 (ip), vehicle: saline) 94 % of control; under setting [14], 66 % of control; under setting [11], 88 % of control.
On to `Nc1nc(=S)c2ncn(C3OC(CO)C(O)C3O)c2[nH]1` (configuration not stated), for which the T/C under setting [2] is 48 % of control, the T/C under setting [3] was 13 % of control and the T/C under setting [4] is 2 % of control.
With `CCCCNc1ncnc2c1cnn2C`, the T/C is, setting by setting: under setting [10], 3 % of control; under setting [11], 13 % of control.
